This is an account of results in patent publication US8563715B2, “Pyrimidine derivative having cell protecting effect and uses thereof” (Zenyaku Kogyo Kabushikikaisha, priority 2008, dated 2013).

For assay [1], the system named is rat brain homogenate (lipid peroxide production). The experiment in a line: Antioxidant activity test (rat brain homogenate autoxidation test). To be noted: lipid peroxide production suppression, 2 hours at 37 degrees Celsius, thiobarbituric acid method. Type of assay: biochemical. As to the method:
The cerebrum was removed from 7 to 11 week old male Wistar rats (Nihon Ikagaku) or male Sprague-Dawley (IGS) rats (Charles River), physiological saline was added, and a 20% brain homogenate was made. 4 μl of test compound dissolved in DMSO was mixed with 200 μl of brain homogenate and 200 μl of PBS (−) (diluted 100 times), incubated for 2 hours at 37 degrees Celsius and shaken at a rate of 160 times per minute, thereby producing a lipid peroxide. After cooling for 5 minutes, the produced lipid peroxide was measured as a thiobarbituric acid reactive substance by using the thiobarbituric acid method. Briefly, 100 μl of 8.1% dodecyl sulfate, 750 μl of 20% acetic acid adjusted to a pH of 3.5, and 750 μl of 0.8% thiobarbituric acid were added, and boiled for 60 minutes, and then cooled. Next, 500 μl of distilled water and 2.5 ml of N-butanol/pyridine (15:1) were added and after 5 minutes of shaking, the supernatant was taken after centrifuging for 10 minutes at 3000 rpm, and the absorbance at 532 nm was measured. The number of examples was 2 examples. Calculation was done of the (absorbance at each concentration/absorbance of a solvent control)×100, and after logit transformation, the lipid peroxide production suppression effect (IC 50 value) was calculated as an indicator of antioxidant activity.

For assay [2], the system named is astrocyte/neuron co-culture. Description: Brain cell damage induced by hydrogen peroxide treatment (LDH assay). The format is cell-based. To be noted: Rattus norvegicus, hydrogen peroxide (250 μM), 24 hours, read-out: 50% inhibition concentration against cell damage in entire co-culture system (EC50 value). The protocol: (§1) The brain was removed from 1 to 2 day old Wistar rats (Charles River) or Sprague-Dawley (IGS) rats (Charles River), and the cerebral cortex including the hippocampus was excised under ice cooling. After this cerebral cortex was minced, it was digested with papain solution (9 U/ml) containing DNase I (30 U/ml) at 37 degrees Celsius for 15 minutes, dispersing the cells. After further carrying out mechanical dispersing by pipetting, it was passed through a cell strainer with a pore size of 70 μm, and a cell suspension was obtained. Cells derived from 1.4 cerebra were seeded on 150 mm tissue culture dish (Iwaki Glass), and primary culture was carried out at 37 degrees Celsius and 5% CO2 using a D-MEM medium (Invitrogen) containing 10% heat-inactivated fetal calf serum (JRH). One day after the start of the culture, the nonadherent cells were removed, and the primary cultured astrocytes were obtained by continuing the culture for 4 to 5 further days. The primary cultured astrocytes were dispersed by trypsin treating, suspended in cryopreservation solution, and cryopreserved.
(§2) After thawing the cryopreserved primary cultured astrocytes, they were seeded on tissue culture plates (Iwaki Glass), and a confluent astrocyte layer was produced by a further 7 days of secondary culture using a D-MEM medium containing 10% heat-inactivated fetal calf serum. Neurons to be used in the co-culture with the astrocyte layer were obtained from fetal rat cerebrum. Briefly, brains were removed from Wistar rats (Charles River) or Sprague-Dawley (IGS) rats (Charles River) of embryonic age 18.5 days, and the cerebral cortex including the hippocampus was excised under ice cooling. After this cerebral cortex was minced, it was digested in papain solution (9 U/ml) containing DNase I (30 U/ml) at 37 degrees Celsius for 15 minutes, dispersing the cells. After further carrying out mechanical dispersing by pipetting, it was passed through a cell strainer with a pore size of 70 μm, and a cell suspension was obtained. This cell suspension was plated at a density of 1.3×10^5 cells/cm^2 on the astrocyte layer, and a co-culture was carried out using D-MEM/F-12 medium (Invitrogen) containing 10% heat-inactivated fetal calf serum and 5% horse serum (Invitrogen). 2 days after the start of the co-culture, cells were treated for 24 hours with 10 μM cytosine arabinoside in order to suppress the excessive cell proliferation of microglia and the like. 8 to 9 days after the start of the co-culture, cells were used for the test. Additionally, using one portion of the cells, immunofluorescent staining and nuclear staining was carried out with astrocyte recognizing antibodies (anti-GFAP) and neuron recognizing antibodies (anti-MAP2), in order to confirm that the present culture system is a co-culture system of astrocytes and neurons.
(§3) An astrocyte/neuron co-culture cultured on a 96 well plate was used in the test. A predetermined concentration of the test substance and hydrogen peroxide (250 μM) was simultaneously added to the cell culture in each well with continuing cultivation, and analysis was done 24 hours after this treatment. Using an LDH Cytotoxicity Detection Kit (Takara Bio), analysis was carried out in accordance with the included instruction manual, and the damage to the entire co-culture system by the hydrogen peroxide treatment and the protective effect (EC 50 value) of the test substance was evaluated. Further, the cell bodies and the neuronal processes of the neurons were observed by microscope, and the neuroprotective effect was evaluated.

The subject of assay [3] is neurons in astrocyte/neuron co-culture. The experiment in a line: Brain cell damage induced by hydrogen peroxide treatment (neuroprotective effect, microscope observation). The format is cell-based. To be noted: Rattus norvegicus, hydrogen peroxide (250 μM), 24 hours, read-out: Concentration for complete inhibition of neuronal death. As to the method: as §1, §2, §3

Molecules are shown by their SMILES.

The IC50 is the point on the concentration scale where inhibition reaches its midpoint. A low value points to greater potency.

Regarding `Oc1ccc(N2CCN(c3nc(N4CCOCC4)cc(N4CCOCC4)n3)CC2)cc1` [Compound 30, 2-[4-(4-hydroxyphenyl)piperazin-1-yl]-4,6-dimorpholinopyrimidine], in assay [1], inhibition was half-maximal at 6840 nM (IC50). For the same compound, the EC50 in assay [2] was 3010 nM. Moreover, the EC100 in assay [3] came out at 10 µM.
For `c1ccc(N2CCN(c3cc(N4CCOCC4)nc(N4CCN(c5ccccc5)CC4)n3)CC2)cc1` [Compound 57, 2,4-bis(4-phenylpiperazin-1-yl)-6-morpholinopyrimidine], the IC50 in assay [1] was determined as 30500 nM. The EC50 in assay [2] was 5120 nM. For the same compound, in assay [3], the EC100 was found to be 30 µM.
The compound `Nc1c(N2CCOCC2)nc(N2CCN(c3ccccc3)CC2)nc1N1CCOCC1` [Compound 63, 5-amino-4,6-dimorpholino-2-(4-phenylpiperazin-1-yl)pyrimidine] had an IC50 in assay [1] of 810 nM. Further, in assay [2], the EC50 was 8300 nM. Moreover, the EC100 in assay [3] was 30 µM.
Taken in the same sequence, the figures for `Nc1c(N2CCOCC2)nc(N2CCC(Cc3ccccc3)CC2)nc1N1CCOCC1` [Compound 66, 5-amino-2-(4-benzylpiperidin-1-yl)-4,6-dimorpholinopyrimidine] were 820 nM, 2860 nM and 30 µM.
For `CN(C)c1nc(N2CCC(Cc3ccccc3)CC2)nc(N2CCSCC2)c1N` [Compound 69, 5-amino-2-(4-benzylpiperidin-1-yl)-4-dimethylamino-6-thiomorpholinopyrimidine], the concentration for half-maximal inhibition (IC50) in assay [1] was 1260 nM. The EC50 in assay [2] was determined as 290 nM. For the same compound, the EC100 in assay [3] is 3 µM.
In assay [1], `Nc1c(N2CCOCC2)nc(N2CCN(Cc3ccccc3)CC2)nc1N1CCOCC1` [Compound 73, 5-amino-2-(4-benzylpiperazin-1-yl)-4,6-dimorpholinopyrimidine] gave an IC50 of 690 nM. Further, the EC50 in assay [2] is 10600 nM.
The matching figures for `Nc1c(N2CCOCC2)nc(N2CCN(c3ccccn3)CC2)nc1N1CCOCC1` [Compound 75, 5-amino-4,6-dimorpholino-2-[4-(pyridin-2-yl)-piperazin-1-yl]pyrimidine]: 670 nM and 9460 nM.
For `Fc1c(N2CCOCC2)nc(N2CCN(c3ccccc3)CC2)nc1N1CCOCC1` [Compound 82, 5-fluoro-4,6-dimorpholino-2-(4-phenylpiperazin-1-yl)pyrimidine], the IC50 in assay [1] was determined as 9200 nM. For the same compound, in assay [2], the EC50 was found to be 600 nM. Moreover, the EC100 in assay [3] was 3 µM.
`Fc1c(N2CCOCC2)nc(N2CCOCC2)nc1N1CCc2ccccc2C1` [Compound 87, 5-fluoro-4-(3,4-dihydro-1H-isoquinolin-2-yl)-2,6-dimorpholinopyrimidine] showed an IC50 in assay [1] of 5780 nM. The EC50 in assay [2] amounted to 680 nM. In addition, the EC100 in assay [3] amounted to 3 µM.
Consider `Fc1c(N2CCOCC2)nc(N2Cc3ccccc3C2)nc1N1CCOCC1` [Compound 89, 5-fluoro-2-(isoindolin-2-yl)-4,6-dimorpholinopyrimidine], for which, in assay [1], the IC50 stood at 3480 nM. Moreover, the EC50 in assay [2] came to 530 nM. For the same compound, the EC100 in assay [3] is 3 µM.
Taken in the same sequence, the figures for `CN(C)c1nc(N2CCOCC2)c(F)c(N2CCN(c3ccccn3)CC2)n1` [Compound 91, 2-dimethylamino-5-fluoro-6-morpholino-4-[4-(pyridin-2-yl)piperazin-1-yl]pyrimidine] were 5880 nM, 880 nM and 10 µM.
In assay [1], `Fc1c(N2CCOCC2)nc(N2CCOCC2)nc1N1CCNC(c2ccccc2)C1` (stereo not drawn) [Compound 94, 5-fluoro-2,4-dimorpholino-6-(3-phenylpiperazin-1-yl)pyrimidine] had an IC50 of 16000 nM. Further, in assay [2], the EC50 was 680 nM. Also, the EC100 in assay [3] was determined as 3 µM.
`Cc1ccc(N2CCN(c3nc(N4CCOCC4)nc(N4CCOCC4)c3F)CC2)cc1` [Compound 99, 5-fluoro-4-[4-(4-methylphenyl)piperazin-1-yl]-2,6-dimorpholinopyrimidine]: 7510 nM corresponded to half-maximal inhibition in assay [1] (IC50). In addition, the EC50 in assay [2] was determined as 400 nM. Also, the EC100 in assay [3] was found to be 1 µM.
`Cc1cccc(N2CCN(c3nc(N4CCOCC4)c(F)c(N4CCOCC4)n3)CC2)c1C` [Compound 105, 5-fluoro-4,6-dimorpholino-2-[4-(2,3-xylyl)piperazin-1-yl]pyrimidine] returned an IC50 in assay [1] of 2770 nM. In addition, the EC50 in assay [2] was 290 nM. For the same compound, the EC100 in assay [3] is 1 µM.
Take `CN(C)c1nc(N2CCOCC2)c(F)c(N2CCN(c3ccccc3Cl)CC2)n1` [Compound 110, 4-[4-(2-chlorophenyl)piperazin-1-yl]-2-dimethylamino-5-fluoro-6-morpholinopyrimidine]: 3020 nM corresponded to half-maximal inhibition in assay [1] (IC50). In addition, in assay [2], the EC50 was found to be 330 nM. In assay [3], the EC100 came to 1 µM.
Taken in the same sequence, the figures for `Fc1c(N2CC=C(c3ccccc3)CC2)nc(N2CCOCC2)nc1N1CCOCC1` [Compound 121, 5-fluoro-2,4-dimorpholino-6-(4-phenyl-1,2,5,6-tetrahydropyridin-1-yl)pyrimidine] were 5050 nM, 320 nM and 1 µM.
The matching figures for `Fc1c(N2CCOCC2)nc(N2CCc3ccccc3C2)nc1N1CCOCC1` [Compound 122, 5-fluoro-4,6-dimorpholino-2-(1,2,3,4-tetrahydro-2H-isoquinolin-2-yl)pyrimidine]: 5480 nM, 290 nM and 1 µM.
Taken in the same sequence, the figures for `COc1ccc(C=Cc2nc(N3CCOCC3)c(N)c(N3CCOCC3)n2)cc1` [Compound 131, 5-amino-2-[2-(4-methoxyphenyl)vinyl]-4,6-dimorpholinopyrimidine] were 7040 nM, 8990 nM and 10 µM.
For the compound `Cn1c(/C=C/c2nc(N3CCOCC3)c(N)c(N3CCOCC3)n2)cc2sccc21` [Compound 133, 5-amino-2-[2-(4-methylthiopheno[1,2-b]pyrrol-5-yl)vinyl]-4,6-dimorpholinopyrimidine], in assay [1], the IC50 came to 1040 nM. For the same compound, the EC50 in assay [2] was 2030 nM. Moreover, the EC100 in assay [3] is 30 µM.
The matching figures for `Nc1c(N2CCOCC2)nc(/C=C/c2ccc(N3CCCCC3)cc2)nc1N1CCOCC1` [Compound 136, 5-amino-4,6-dimorpholino-2-[2-(4-piperidinophenyl)vinyl]pyrimidine]: 1690 nM, 730 nM and 3 µM.
`CNc1nc(/C=C/c2ccc(OC)cc2)nc(N2CCOCC2)c1N` [Compound 139, 5-amino-2-[2-(4-methoxyphenyl)vinyl]-4-methylamino-6-morpholinopyrimidine] showed an IC50 in assay [1] of 110 nM. In addition, the EC50 in assay [2] stood at 1150 nM. Moreover, the EC100 in assay [3] came to 3 µM.
On to `Cc1ccc(N2CCN(c3nc(N4CCN(C)CC4)nc(N4CCOCC4)c3F)CC2)cc1` [Compound 151, 5-fluoro-4-[4-(4-methylphenyl)piperazin-1-yl]-2-(4-methylpiperazin-1-yl)-6-morpholinopyrimidine], for which inhibition in assay [1] was half-maximal at 8410 nM (IC50). Besides, the EC50 in assay [2] turned out to be 980 nM.
